In US11623940B2, “Methods of nucleic acid synthesis comprising polyphosphate containing species” (Nuclera Nucleics Ltd., priority 2017, dated 2023):
“Also recorded” adds a separate entry of the source.

How the values were obtained:
terminal transferase [1] = experiment: Terminal transferase-mediated addition of capping polyphosphate species to initiator strand (denaturing polyacrylamide gel); format: biochemical; conditions: for conversion of initiator strand of length N by terminal transferase-mediated addition: FIG. 1 lanes 2 and 3
Excerpt: (§1) FIG. 1: Incorporation of dideoxynucleoside triphosphates by a terminal transferase prevents subsequent DNA synthesis. Lane 1: initiator sequence; Lane 2: dideoxyadenosine triphosphate addition; Lane 3: dideoxythymidine triphosphate addition; Lanes 4-6: duplicates of lanes 1-3 exposed to dCTP tailing conditions; Lane 7: initiator sequence. While dCTP tailing leads to the formation of a range of higher molecular weight products (Lane 4), prior treatment with a terminal transferase and dideoxynucleoside triphosphate prevents the formation of such higher molecular weight species (Lanes 5 and 6).
FIG. 2: Incorporation of tripolyphosphate by a terminal transferase prevents subsequent DNA synthesis. Lane 1: initiator sequence; Lane 2: 1 mM sodium tripolyphosphate; Lane 3: 10 mM sodium tripolyphosphate; Lane 4: 50 mM sodium tripolyphosphate; Lanes 5-7: duplicates of lanes 2-4 exposed to dCTP tailing conditions. Reaction products were analysed by denaturing polyacrylamide gel and visualized by an internal FAM dye.
(§2) Data is presented herein which exemplifies the utility of dideoxynucleoside triphosphates as a capping agent by incorporating a dideoxynucleotide using a terminal transferase, and so preventing polymerization of deoxycytidine triphosphate (dCTP) in a subsequent step with terminal transferase (FIG. 1). […] When the initiator strand is exposed to terminal transferase in the presence of dCTP, many higher molecular weight products are formed (a smear on the gel) due to the uncontrolled incorporation of dCTP into the initiator strand (lane 4). […] Lane 7 is a duplicate of lane 1.
(§3) Data is presented herein which exemplifies the utility of tripolyphosphate as a capping agent by incorporating a phosphate moiety on the 3′-terminus of an oligonucleotide using a terminal transferase, and so preventing polymerization of dCTP in a subsequent step with terminal transferase (FIG. 2). […] The new species migrates faster on the polyacrylamide gel due to the additional charge presented by the new 3′-phosphate moiety. […] Following incubation with the terminal transferase and tripolyphosphate, the mixture was removed. The initiator strand was then incubated with a terminal transferase and canonical dCTP. If a free 3′-hydroxyl is present, terminal transferase will add many dCTP in an uncontrolled fashion to generate higher molecular weight oligonucleotides.

terminal transferase [2] = experiment: dCTP tailing with terminal transferase after capping pre-treatment of initiator strand (gel); format: biochemical; conditions: for incorporation of dCTP into pre-treated initiator strand when exposed to terminal transferase and dCTP: FIG. 1 lanes 5 and 6, pre-treated with dideoxynucleoside triphosphate
Excerpt: as §1
FIG. 2: Incorporation of tripolyphosphate by a terminal transferase prevents subsequent DNA synthesis. […] Reaction products were analysed by denaturing polyacrylamide gel and visualized by an internal FAM dye.
as §2, §3

Nc1ncnc2c1ncn2[C@H]1CC[C@@H](COP(=O)(O)OP(=O)(O)OP(=O)(O)O)O1 [ddATP, dideoxyadenosine triphosphate]
conversion of initiator strand of length N by terminal transferase-mediated addition (terminal transferase [1]): converted to an N+1 species
incorporation of dCTP into pre-treated initiator strand when exposed to terminal transferase and dCTP (terminal transferase [2]): resistant to incorporation of dCTP

dideoxythymidine triphosphate [ddTTP]
conversion of initiator strand of length N by terminal transferase-mediated addition (terminal transferase [1]): converted to an N+1 species
incorporation of dCTP into pre-treated initiator strand when exposed to terminal transferase and dCTP (terminal transferase [2]): resistant to incorporation of dCTP

sodium tripolyphosphate
terminal transferase mediated 3′-phosphorylation of initiator strand (terminal transferase [1]; 1 mM tripolyphosphate, FIG. 2 lane 2): partially converted to a new 3′-phosphorylated species; also recorded: converted to a 3′-phosphorylated initiator sequence
terminal transferase mediated 3′-phosphorylation of initiator strand (terminal transferase [1]; 5 mM tripolyphosphate, FIG. 2 lane 3): partially converted to a new 3′-phosphorylated species
terminal transferase mediated 3′-phosphorylation of initiator sequence (terminal transferase [1]; 10 mM sodium tripolyphosphate, FIG. 2 lane 3 (figure legend)): converted to a 3′-phosphorylated initiator sequence
terminal transferase mediated 3′-phosphorylation of initiator strand (terminal transferase [1]; 50 mM tripolyphosphate, FIG. 2 lane 4): does not proceed
dCTP polymerization by terminal transferase after capping pre-incubation (terminal transferase [2]; pre-incubation with 1 mM tripolyphosphate, FIG. 2 lane 5): largely prevents this polymerization; also recorded: resistant to enzyme mediated DNA polymerisation
dCTP polymerization by terminal transferase after capping pre-incubation (terminal transferase [2]; pre-incubation with 5 mM tripolyphosphate, FIG. 2 lane 6): largely prevents this polymerization
dCTP polymerisation by terminal transferase after capping pre-incubation (terminal transferase [2]; pre-incubation with 10 mM sodium tripolyphosphate, FIG. 2 lane 6 (figure legend)): resistant to enzyme mediated DNA polymerisation
dCTP polymerization by terminal transferase after capping pre-incubation (terminal transferase [2]; pre-incubation with 50 mM tripolyphosphate, FIG. 2 lane 7): complete polymerization to higher molecular weight species
